From patent US10407409B2, “6-(5-hydroxy-1H-pyrazol-1-yl)nicotinamide inhibitors of PHD” (Takeda Pharmaceutical Company Limited, priority 2013, dated 2019)

Key:
[1] = tested on: HIF1a protein in H9c2 rat cardiomyocytes; test: Cell-based HIF-alpha stabilization assay (inhibition of PHD in cells); details: Rattus norvegicus, H9c2, 24 h, 24 hrs compound incubation, HIF1a protein by ELISA, read-out: Inhibition of PHD in cells (pEC50) (converted)
Method in brief: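 Rat H9c2 cardiomyocytes, cultured 24 h, were treated 24 h with an 11-point serial dilution of compound. HIF1a in whole-cell lysates was quantified by ELISA as % of the maximal desferrioxamine response. EC50 came from curve fitting; EC50pos is the concentration reaching 50% of the desferrioxamine maximum.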

[2] = biological target: PHD2 enzyme (residues 181-417) (Homo sapiens (Human), UniProt Q9GZT9); test: Inhibition of PHD enzyme (LC/MS peptide hydroxylation assay); type: biochemical; details: PHD2 (residues 181-417) 5 nM, 60 min pre-incubation, -log(IC50), IC50 molar
Method in brief: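 PHD2 (5 nM final) preincubated with inhibitor 60 min at RT in 50 mM HEPES, 50 mM KCl, 0.5 mM TCEP, 2 uM FeCl2, 0.1 mg/ml BSA, pH 7.3. Reaction started with biotin-peptide (1 uM), 2-oxoglutarate (2 uM), ascorbate (1 mM), quenched at 60 min; hydroxylated product by LC/MS, reported as pIC50.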

Chain of PHD2 enzyme (residues 181-417) (Q9GZT9 181-417): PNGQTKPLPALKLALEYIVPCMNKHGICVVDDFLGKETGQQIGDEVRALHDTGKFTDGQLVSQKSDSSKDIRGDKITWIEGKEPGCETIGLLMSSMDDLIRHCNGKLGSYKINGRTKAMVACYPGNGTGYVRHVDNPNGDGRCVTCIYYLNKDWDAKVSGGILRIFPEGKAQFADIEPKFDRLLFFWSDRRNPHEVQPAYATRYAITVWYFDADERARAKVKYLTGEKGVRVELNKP

SMILES	EC50 [1]	PHD Inhibition (pIC50) [2]	IC50 ([2]; read-out: PHD Inhibition (pIC50) (converted))
CCN(C)[C@@H]1CCCN(C(=O)c2ccc(-n3ncc(-c4ccc(C#N)cc4C)c3O)nc2)C1 [Example 382, (R)-4-(1-(5-(3-(ethyl(methyl)amino)piperidine-1-carbonyl)pyridin-2-yl)-5-hydroxy-1H-pyrazol-4-yl)-3-methylbenzonitrile]	977 nM	8.00	
Cc1cc(C#N)ccc1-c1cnn(-c2ccc(C(=O)N3CCC[C@@H](N(C)C4CC4)C3)cn2)c1O [Example 383, (R)-4-(1-(5-(3-(cyclopropyl(methyl)amino)piperidine-1-carbonyl)pyridin-2-yl)-5-hydroxy-1H-pyrazol-4-yl)-3-methylbenzonitrile]	1100 nM	8.28	
CCN(C)[C@H]1CCCN(C(=O)c2ccc(-n3ncc(-c4ccc(C#N)cc4C)c3O)nc2)C1 [Example 384, (S)-4-(1-(5-(3-(ethyl(methyl)amino)piperidine-1-carbonyl)pyridin-2-yl)-5-hydroxy-1H-pyrazol-4-yl)-3-methylbenzonitrile]	1510 nM	7.93	
Cc1cc(C#N)ccc1-c1cnn(-c2ccc(C(=O)N3CCN(C)C[C@H]3C)cn2)c1O [Example 385, (R)-4-(1-(5-(2,4-dimethylpiperazine-1-carbonyl)pyridin-2-yl)-5-hydroxy-1H-pyrazol-4-yl)-3-methylbenzonitrile]	955 nM	8.18	
Cc1cc(C#N)ccc1-c1cnn(-c2ccc(C(=O)N3CCC[C@@H](N4CCCC4)C3)cn2)c1O [Example 387, (R)-4-(5-hydroxy-1-(5-(3-(pyrrolidin-1l-yl)piperidine-1-carbonyl)pyridin-2-yl)-1H-pyrazol-4-yl)-3-methylbenzonitrile]	871 nM	7.91	
CCN1CCN(C(=O)c2ccc(-n3ncc(-c4ccc(C#N)cc4C)c3O)nc2)C[C@H]1C [Example 388, (R)-4-(1-(5-(4-ethyl-3-methylpiperazine-1-carbonyl)pyridin-2-yl)-5-hydroxy-1H-pyrazol-4-yl)-3-methylbenzonitrile]	513 nM	8.25	
Cc1cc(C#N)ccc1-c1cnn(-c2ccc(C(=O)N3CCN(C4CC4)[C@@H](C)C3)cn2)c1O [Example 389, (S)-4-(1-(5-(4-cyclopropyl-3-methylpiperazine-1-carbonyl)pyridin-2-yl)-5-hydroxy-1H-pyrazol-4-yl)-3-methylbenzonitrile]	1150 nM	8.20	
Cc1cc(C#N)ccc1-c1cnn(-c2ccc(C(=O)N3CCN(C)C4(CC4)C3)cn2)c1O [Example 390, 4-(5-hydroxy-1-(5-(4-methyl-4,7-diazaspiro[2.5]octane-7-carbonyl)pyridin-2-yl)-1H-pyrazol-4-yl)-3-methylbenzonitrile]	955 nM	8.29	
Cc1cc(C#N)ccc1-c1cnn(-c2ccc(C(=O)N3CCN(C)[C@H](C)C3)cn2)c1O [Example 392, (R)-4-(1-(5-(3,4-dimethylpiperazine-1-carbonyl)pyridin-2-yl)-5-hydroxy-1H-pyrazol-4-yl)-3-methylbenzonitrile]	355 nM	8.20	
Cc1cc(C#N)ccc1-c1cnn(-c2ccc(C(=O)N3CCN(C(C)C)[C@@H](C)C3)cn2)c1O [Example 393, (S)-4-(5-hydroxy-1-(5-(4-isopropyl-3-methylpiperazine-1-carbonyl)pyridin-2-yl)-1H-pyrazol-4-yl)-3-methylbenzonitrile]	1450 nM		13.8 nM
Cc1cc(C#N)c(F)cc1-c1cnn(-c2ccc(C(=O)N3CC(N(C)C)C3)cn2)c1O [Example 394, 4-(1-(5-(3-(dimethylamino)azetidine-1-carbonyl)pyridin-2-yl)-5-hydroxy-1H-pyrazol-4-yl)-2-fluoro-5-methylbenzonitrile]	2820 nM	7.88	
